Assay results from ChEMBL document CHEMBL5727968, “3-phenyl-pyrazole derivatives as modulators of the 5-HT2A serotonin receptor useful for the treatment of disorders related thereto” (2020).

Target: 5-hydroxytryptamine receptor 2A (Homo sapiens, UniProt P28223)
Assay: [125I]DOI Radioligand Binding Assay: Radioligand binding assays for human 5-HT2A receptor was conducted using the 5-HT2 agonist [125I]DOI as radioligand. To define nonspecific binding, 10 μM DOI was used for all assays. For competitive binding studies, 0.5 nM [125I]DOI was used and compounds were assayed over a range of 0.01 nM to 10 μM. Assays were conducted in a total volume of 200 μl in 96-well Perkin Elmer GF/C filter plates in assay buffer (50 mM Tris-HCl, pH 7.4, 0.5 mM EDTA, 5 mM MgCl2, and 10 μM pargyline). Assay incubations were performed for 60 min at room temperature and were terminated by rapid filtration under vacuum pressure of the reaction mixture over Whatman GF/C glass fiber filters presoaked in 0.5% PEI using a Brandell cell harvestor. Filters were then washing several times with ice-cold wash buffer (50 mM Tris-HCl, pH 7.4). Plates were then dried at room temperature and counted in a Wallac microBeta scintillation counter.

5-hydroxytryptamine receptor 2A, sequence (P28223 whole entry): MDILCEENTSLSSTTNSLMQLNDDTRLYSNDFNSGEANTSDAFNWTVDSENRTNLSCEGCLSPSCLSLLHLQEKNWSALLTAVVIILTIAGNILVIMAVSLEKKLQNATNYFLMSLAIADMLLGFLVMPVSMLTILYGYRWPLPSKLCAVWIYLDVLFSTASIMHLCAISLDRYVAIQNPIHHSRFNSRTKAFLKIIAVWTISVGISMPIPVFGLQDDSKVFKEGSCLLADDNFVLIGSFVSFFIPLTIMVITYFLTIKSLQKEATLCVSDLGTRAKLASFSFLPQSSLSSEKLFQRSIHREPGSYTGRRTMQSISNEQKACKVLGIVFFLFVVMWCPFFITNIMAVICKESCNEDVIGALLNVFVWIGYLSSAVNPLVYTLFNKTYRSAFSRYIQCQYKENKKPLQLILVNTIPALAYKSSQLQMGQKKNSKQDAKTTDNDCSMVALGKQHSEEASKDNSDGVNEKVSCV

| IC50 | Compound |
| --- | --- |
| 10.2 nM | Cn1nccc1-c1cc(NC(=O)NCc2ccc(Cl)cc2)ccc1OCCN1CCCC1 |
| 1.1 nM | CCC(C)OC(=O)Nc1ccc(OCCN2CCCC2)c(-c2c(Br)cnn2C)c1 (stereo not drawn) |
| 13.7 nM | Cn1nccc1-c1cc(NC(=O)Cc2ccc(F)cc2)ccc1OCCN1CCCCC1 |
